The values that follow come from patent US5212173A, “Alkylaminoalkylamine and ether compounds, processes and intermediates for their preparation, and medicaments containing them” (Kali-Chemie Pharma GmbH, priority 1990, dated 1993).

Some results are limits rather than exact numbers.

The conditions of data set [1]: in vivo, po, 1440 min. The protocol:
Male mice weighing 20-25 g were orally administered maximum doses of 300 mg/kg of the test substance. The animals were carefully observed for toxic symptoms for three hours. All symptoms and deaths over a period of 24 hours after administration were also recorded. Accompanying symptoms were likewise observed and recorded. If death or strongly toxic symptoms was observed, increasingly smaller doses were administered to further mice until toxic symptoms no longer occurred. The lowest dose which caused death or strongly toxic symptoms is given as the minimum toxic dose in the following Table B.

For another data set, the system named is colon. The data set can be described thus: Activity on spontaneous motility of the colon in anesthetized rats. The format is in vivo, rat. As to conditions: 100 μmol/kg i.p. The protocol:
The effects of the test substances on the amplitudes and frequencies of gastric and intestinal contractions were measured by the following experimental method. Determination of the activity of the test substances on the spontaneous motility of the colon in anesthetized rats.
Fasting rats of the SIV 50 strain having a body weight of 180-250 g were anesthetized with a ketamine/xylazine mixture. The animals were tracheotomised and laparotomised. After applying a pylorus ligature, a stomach tube was inserted into the stomach and connected at the other end to a calibrated pressure transducer (Statham element P 23 ID) via a three-way tap. A corresponding tube was inserted rectally 8 to 9 cm into the colon and likewise connected, in the same manner, to a corresponding calibrated pressure transducer. The stomach of the animals was then filled with 2 to 3 ml of water via the tube. The pressure variations in the colon were recorded before and after administration of the test substances using a Watanabe multicorder (MC 641). The differences between the average amplitudes before and after the treatment were determined, and the percent change in the average amplitudes caused by the test substances relative to the values obtained before the treatment is reported in the following Table B.

Data set [2] has as its system isolated guinea pig ileum. The data set can be described thus: Spasmolytic action in vitro against potassium chloride-induced contraction on the isolated guinea pig ileum. The format is cell-based. The note with it: Cavia porcellus, 50 mmol/l KCl, Tyrode solution, 37° C., read-out: EC50 (approximately 50% reduction in the maximum potassium chloride-induced contraction). An excerpt:
In a physiological saline solution, isolated organ strips from the gastrointestinal tract such as gastric fundus, gastric antrum, duodenum, ileum, proximal colon and distal colon react to the addition of a spasmogen, for example potassium chloride solution, by contracting. This contraction of the organ strips, induced by the addition of spasmogen, is decreased by addition of the compounds of the invention. The extent of the regression of the contraction is an index of the spasmolytic activity of the compounds. Determination of spasmolytic activity against potassium chloride-induced spasms in isolated guinea pig ileum.
Female guinea pigs of the Wiga strain having a body weight of about 300 g were sacrificed. Organ strips from the ileum about 1 cm long were placed in an organ bath of Tyrode solution at 37° C. and mounted in a conventional apparatus for the isotonic measurement of changes in length. Tyrode solution is an aqueous solution containing 136.9 mmol of NaCl, 2.68 mmol of KCl, 2.31 mmol of CaCl2, 1.0 mmol of MgCl2, 11.9 mmol of NaHCO3, 1.45 mmol of NaH2 PO4 and 5.55 mmol of glucose per liter. After an equilibration phase of one hour, 50 mmol/l of potassium chloride were added to the bath fluid to test the sensitivity of the ileum strips. The strips were then rinsed again with Tyrode solution. 50 mmol/l of potassium chloride were then added to the bath fluid again to induce a contraction of the ileum strip due to spasm. As soon as the contraction of the ileum strip due to spasm has reached a constant maximum value, the test substance was added to the bath fluid, and the decrease in the contraction was recorded and calculated as a % of the constant maximum contraction.
The following table A gives the obtained by the test method described above. The example numbers given in the table for the compounds of formula I correspond to the numbers of the subsequent Preparation Examples. In Table A, the EC50 represents the concentration of the test substance in moles/liter in the bath fluid with which an approximately 50% reduction is achieved in the strength of the maximum spasmodic contraction induced in the ileum strip by potassium chloride.

A word on the EC50: it is the concentration at which the effect is half-maximal. Consider `CC(C)[C@@H]1CC[C@@H](C)C[C@H]1OCCN(C)CCN1CCOCC1` [Example 1, N-[2-((1R,3R,4S)-1-methyl-4-isopropylcyclohex-3-yloxy)ethyl]-N-[2-(morpholin-1-yl)ethyl]-N-methylamine], for which the “Minimum toxic dose in the mouse” value in data set [1] was more than 300 mg/kg. For the same compound, the “Action on spontaneous motility in the colon, % amplitude reduction” value (from here on “Action … % amplitude reduction”) with colon came out at 55%. The EC50 in data set [2] was 12 µM.

For the compound `CC(C)COCCN(C)CCO[C@@H]1C[C@H](C)CC[C@H]1C(C)C` [Example 2, N-[2-((1R,3R,4S)-1-methyl-4-isopropylcyclohex-3-yloxy)ethyl]-N-[2-(2,2-dimethylethoxy)ethyl]-N-methylamine], the “Minimum toxic dose in the mouse” value in data set [1] is reported as more than 300 mg/kg. Besides, the “Action … % amplitude reduction” value with colon was 55%. Moreover, in data set [2], the EC50 amounted to 2 µM.

Regarding `CN(CCSCC[C@@H]1CC[C@H]2C[C@@H]1C2(C)C)CCN1CCOCC1` [Example 7, N-(2-[2-((1S,2S,5S)-6,6-dimethylbicyclo[3.1.1]hept-2-yl)ethylthio]ethyl)-N-[2-(morpholin-1-yl)ethyl]-N-methylamine], the EC50 in data set [2] is 16 µM.

With `CN(CCCCCOCC[C@@H]1CC[C@H]2C[C@@H]1C2(C)C)CCN1CCOCC1` [Example 10, N-(5-[2-((1S,2S,5S)-6,6-dimethylbicyclo[3.1.1]hept-2-yl)ethoxy]pentyl)-N-[2-(morpholin-1-yl)ethyl]-N-methylamine], in data set [2], the EC50 was 30 µM.

Consider `CC(C)COCCNCCO[C@@H]1C[C@H](C)CC[C@H]1C(C)C` [Example 16, N-[2-((1R,3R,4S)-1-methyl-4-isopropylcyclohex-3-yloxy)ethyl]-N-[2-(2,2-dimethylethoxy)ethyl]amine], for which, in data set [2], the concentration for a half-maximal effect (EC50) came out at 4.9 µM.

For `COc1cc(CN(C)CCN(C)CCO[C@@H]2C[C@H](C)CC[C@H]2C(C)C)cc(OC)c1OC` [Example 19, N-[2-((1R,3R,4S)-1-methyl-4-isopropylcyclohex-3-yloxy)ethyl]-N-(2-[N'-(3,4,5-trimethoxybenzyl)-N'-methylamino]ethyl)-N-methylamine], the “Action … % amplitude reduction” value in the data set on colon turned out to be 74%. For the same compound, the half-maximal effective concentration (EC50) in data set [2] was 0.54 µM.

Consider `CC(C)N(CCOCC[C@@H]1CC[C@H]2C[C@@H]1C2(C)C)CCN1CCOCC1` [Example 20], for which, in data set [1], the “Minimum toxic dose in the mouse” value is recorded as more than 300 mg/kg. Also, the “Action … % amplitude reduction” value in the data set on colon is listed as 69%. Besides, the EC50 in data set [2] came out at 7.9 µM.

With `COc1ccc(CCN(C)CCN(C)CCOCC[C@@H]2CC[C@H]3C[C@@H]2C3(C)C)cc1OC` [Example 21], the “Minimum toxic dose in the mouse” value in data set [1] is listed as 300 mg/kg. The “Action … % amplitude reduction” value with colon is recorded as 62%. Further, the half-maximal effective concentration (EC50) in data set [2] was 3.6 µM.

For the compound `CCOCCN(C)CCOCC[C@@H]1CC[C@H]2C[C@@H]1C2(C)C` [Example 22], the “Minimum toxic dose in the mouse” value in data set [1] came out at 100 mg/kg. Besides, the “Action … % amplitude reduction” value in the data set with colon came out at 85%. Further, the EC50 in data set [2] was 8.7 µM.

Turning to `COc1ccc(CN(CCN(C)CCO[C@@H]2C[C@H](C)CC[C@H]2C(C)C)C(C)C)cc1OC` [Example 23], the EC50 in data set [2] is 1.5 µM.

In the case of `CC(C)[C@H]1CC[C@H](C)C[C@@H]1OCCN(C)CCN1CCOCC1` [Example 24], the EC50 in data set [2] was 14 µM.

As to `CC(C)[C@@H]1CC[C@@H](C)C[C@H]1OCCN(C)CCN1CCCC1` [Example 32], in data set [2], the concentration giving a half-maximal response (EC50) was 20 µM.

For `CC(C)[C@@H]1CC[C@@H](C)C[C@H]1OCCN(C)CCN1CCN(C)CC1` [Example 34], in data set [2], the EC50 stood at 47 µM.

For the compound `CC(C)[C@@H]1CC[C@@H](C)C[C@H]1OCCN(C)CCOCc1ccccc1` [Example 35], in data set [2], the EC50 was found to be 1.9 µM.

For the compound `CC(C)[C@@H]1CC[C@@H](C)C[C@H]1OCCN(C)CCCCCCN1CCOCC1` [Example 36], the EC50 in data set [2] amounted to 43 µM.

`CN(CCO[C@H]1C(C)(C)[C@@H]2CC[C@@]1(C)C2)CCN1CCOCC1` [Example 37]: the EC50 in data set [2] worked out at 26 µM.

For `CN(CCO[C@@H]1C[C@@H]2CC[C@@]1(C)C2(C)C)CCN1CCOCC1` [Example 38], in data set [2], the EC50 is 19 µM.

In the case of `CC(C)[C@@H]1CC[C@@H](C)C[C@H]1OCCN(C)CCNCc1ccc(Cl)c(Cl)c1` [Example 44], in data set [2], the EC50 turned out to be 2.4 µM.

For the compound `CC(C)[C@@H]1CC[C@@H](C)C[C@H]1OCCN(C)CCN(C)CCc1ccccc1Cl` [Example 46], the EC50 in data set [2] turned out to be 4.8 µM.

On to `CC(C)[C@@H]1CC[C@@H](C)C[C@H]1OCCN(C)CCN(Cc1ccccc1)Cc1ccccc1` [Example 48], for which, in the data set with colon, the “Action … % amplitude reduction” value is 85%. In addition, the 50% effective concentration (EC50) in data set [2] was found to be 0.68 µM.

With `CC(C)[C@@H]1CC[C@@H](C)C[C@H]1OCCN(C)CCN(C)CCCCc1ccccc1` [Example 50], the concentration giving a half-maximal response (EC50) in data set [2] amounted to 1.3 µM.
